How the values were obtained:
Experiment in all cases: Michaelis-Menten halogenation kinetics
RadH [1] = target: T1, RadH (Floropilus chiversii, UniProt C5H881, D465E/T501S); type: biochemical; settings: kinetic assay conditions in supplement (Figures S4-S10); table prints D456E/T501S, text prints D465E/T501S throughout
T1 construct: recombinant, overproduced in E. coli, purified
Source text: (§1) Michaelis-Menten halogenation kinetics on RadH

RadH [2] = target: T2, RadH (Floropilus chiversii, UniProt C5H881); type: biochemical; settings: kinetic assay conditions in supplement (Figures S4-S10)
T2 construct: recombinant, overproduced in E. coli, purified
Source text: as §1

[3] = tested on: O=c1cc(-c2ccccc2)oc2cc(O)ccc12; type: biochemical, Floropilus chiversii; settings: kinetic assay conditions in supplement (Figures S4-S10)
Source text: as §1

[4] = table prints D456E/T501S, text prints D465E/T501S throughout

T2 sequence (C5H881 whole entry): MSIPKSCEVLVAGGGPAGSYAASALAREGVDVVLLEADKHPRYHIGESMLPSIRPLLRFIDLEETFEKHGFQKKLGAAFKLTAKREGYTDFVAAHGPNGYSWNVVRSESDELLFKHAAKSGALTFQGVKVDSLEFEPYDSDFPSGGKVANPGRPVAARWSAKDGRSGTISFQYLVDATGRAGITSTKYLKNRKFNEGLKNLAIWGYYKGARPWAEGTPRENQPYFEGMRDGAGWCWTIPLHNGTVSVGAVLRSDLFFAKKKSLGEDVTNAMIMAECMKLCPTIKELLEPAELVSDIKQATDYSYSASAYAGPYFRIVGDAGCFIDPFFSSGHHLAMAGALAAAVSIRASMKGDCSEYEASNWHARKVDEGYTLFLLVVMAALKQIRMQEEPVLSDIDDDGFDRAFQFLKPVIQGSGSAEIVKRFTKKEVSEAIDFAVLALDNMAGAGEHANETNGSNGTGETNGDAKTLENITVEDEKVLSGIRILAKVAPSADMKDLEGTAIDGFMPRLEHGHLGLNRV
T1 sequence (C5H881 whole entry D465E/T501S): as the sequence (C5H881 whole entry) above, with D465E, T501S counted along it

Compound	Km (RadH [1]) [µM]	Km (RadH [2]) [µM]	further results
Oc1ccc2cnccc2c1 [compound 6, 6-hydroxyisoquinoline]	268 ± 10	277 ± 3	
O=c1ccc2ccc(O)cc2o1 [compound 8, 7-hydroxycoumarin]	465 ± 4	379 ± 5	
O=c1cc(C(F)(F)F)c2ccc(O)cc2o1 [compound 10, 10]		309 ± 19	
Cc1cc(=O)oc2cc(O)ccc12 [compound 11, 11]		364 ± 18	
O=c1c(-c2ccc(O)cc2)coc2cc(O)ccc12 [compound 14, 14]	315 ± 1	281 ± 2	
RadH (Floropilus chiversii)			Km [3]: 347 ± 2 µM; kcat [3]: 0.000533 ± 5e-05 s⁻¹; kcat/Km [3]: 1.53 ± 0.15 M⁻¹ s⁻¹
RadH (Floropilus chiversii; D465E/T501S)			Km [3, 4]: 383 ± 4 µM; kcat [3, 4]: 0.000517 ± 3.33e-05 s⁻¹; kcat/Km [3, 4]: 1.35 ± 0.0833 M⁻¹ s⁻¹

Reference: article PMC5637929, “RadH: A Versatile Halogenase for Integration into Synthetic Pathways” (Angewandte Chemie (International Ed. in English), 2017)
